Source: US10874743B2, “IRAK degraders and uses thereof” (Kymera Therapeutics, Inc., priority 2017, dated 2020)

Target: T1, IRAK4 (Homo sapiens, UniProt Q9NWZ3)
T1 sequence (Q9NWZ3 1-460): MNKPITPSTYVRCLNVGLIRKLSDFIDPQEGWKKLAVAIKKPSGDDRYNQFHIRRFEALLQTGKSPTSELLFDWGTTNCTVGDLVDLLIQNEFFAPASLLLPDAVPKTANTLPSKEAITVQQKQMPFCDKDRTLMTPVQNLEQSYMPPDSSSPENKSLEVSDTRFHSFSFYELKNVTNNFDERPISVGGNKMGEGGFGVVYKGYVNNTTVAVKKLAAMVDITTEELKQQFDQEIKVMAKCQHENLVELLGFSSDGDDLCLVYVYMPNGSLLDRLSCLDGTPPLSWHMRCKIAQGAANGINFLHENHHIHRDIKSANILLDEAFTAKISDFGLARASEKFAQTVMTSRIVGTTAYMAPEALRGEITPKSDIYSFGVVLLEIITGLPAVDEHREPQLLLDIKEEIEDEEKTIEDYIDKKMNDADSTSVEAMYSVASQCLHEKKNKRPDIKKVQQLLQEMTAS
Test: OCI-LY-10 degradation assay (western blot, % IRAK4 degraded after 4 hours)
Format: cell-based
Parameters: endogenous in cells; host or cells: OCI-LY10
Details: OCI-LY10 cells
Outline: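 IRAK4 loss after 4 h at 37° C was scored A (>50%), B (>20-50%) or C (<20%) from infrared western blots of RIPA lysates, 20-25 μg protein per lane. Compound was applied at 0.003-10 μM final to OCI-LY10 cells cultured in RPMI-1640 with 20% FBS and 55 μM 2-ME.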

OCI-LY10 % IRAK4 Degradation (0.01 uM) (4 hours, 0.01 uM compound): C (<20% degradation)
OCI-LY10 % IRAK4 Degradation (0.1 uM) (4 hours, 0.1 uM compound): B (>20-50% degradation)
OCI-LY10 % IRAK4 Degradation (1 uM) (4 hours, 1 uM compound): A (>50% degradation)
OCI-LY10 % IRAK4 Degradation (IRAK4 degraded after 4 hours, western blot): A (>50% degradation)
SMILES: O=C1CCC(N2C(=O)c3cccc(NCCOCCOCCNCc4ccc(-n5cc(NC(=O)c6coc(-c7ccnc(NCC8CC8)c7)n6)c(C(F)F)n5)cc4)c3C2=O)C(=O)N1 (stereo not shown) [I-210, 2-[2-(Cyclopropylmethylamino)-4-pyridyl]-N-[3-(difluoromethyl)-1-[4-[[2-[2-[2-[[2-(2,6-dioxo-3-piperidyl)-1,3-dioxoisoindolin-4-yl]amino]ethoxy]ethoxy]ethylamino]methyl]phenyl]pyrazol-4-yl]oxazole-4-carboxamide]
